Data from patent US3965109A, “Certain aryl amino pyridines” (priority 1971, dated 1976).

Experiments:
Xanthomonas oryzae = type: cell-based; conditions: 50 ppm; 5 days
Streptomyces scabies = assay: Antibacterial agar test (B7); type: cell-based; conditions: 50 ppm; 5 days
[1] = tested on: Plutella maculipennis (diamond back moth larvae); assay: Pest toxicity test; type: in vivo; conditions: in vivo
Erwinia carotovora = assay: Antibacterial agar test (B4); type: cell-based; conditions: 50 ppm; 5 days
[2] = tested on: Tetranychus telarius (red spider mites, eggs); assay: Pest toxicity test; type: in vivo; conditions: 0.1% by weight; French bean; 3 days
Pseudomonas syringae = assay: Antibacterial agar test (B6); type: cell-based; conditions: 50 ppm; 5 days
[3] = tested on: Corynebacterium michiganense; assay: Antibacterial agar test (B2); type: cell-based; conditions: 50 ppm; 5 days
Procedure: (§1) This Example illustrates the activity of compounds used as the active ingredients of compositions according to the invention against a variety of plant bacterial diseases and fungal post-harvest saprophytic diseases. In a test for such activity, 5 milligrams of the compound to be tested was dissolved or suspended in 10 ml. of acetone and enough of this solution or suspension was added to 18 ml. of nutrient agar (for the bacterial diseases) or 16 ml. of 2% malt agar (for the fungal diseases) to give a final concentration of 50 parts per million of the compound under test. A streptomycin preparation (2 ml. containing 100 units per ml.) was added to the malt agar to prevent bacterial contamination of the fungal tests.
(§2) The agar preparations were dried overnight in Petri dishes and inoculated the following morning with the bacterial or fungal diseases using a multipoint inoculator. The antibacterial activity was assessed after 5 days and the antifungal activity after 6 days. The results of the tests are set out in Table 16 (anti bacterial activity) and Table 17 (antifungal activity). The results are graded as in Example 1 above.

[4] = tested on: Plasmopara viticola (vine); assay: Fungicidal test against foliar disease C (foliage spray plus soil drench); type: in vivo; conditions: 100 ppm spray and drench; 10 days
[5] = tested on: Pieris brassicae (cabbage white caterpillars); assay: Pest toxicity test; type: in vivo; conditions: 0.1% by weight, 2 days
Xanthomonas malvacearum = assay: Antibacterial agar test (B3); type: cell-based; conditions: 50 ppm; 5 days
Procedure: as §1, §2

[6] = tested on: Aedes aegypti (mosquito adults); assay: Pest toxicity test; type: in vivo; conditions: 0.01% by weight; plywood; 1 day
Aphis fabae = assay: Pest toxicity test; type: in vivo; conditions: 0.1% by weight; broad bean; 2 days
[7] = tested on: Aedes aegypti (mosquito larvae); assay: Pest toxicity test; type: in vivo; conditions: 0.01% by weight; water; 1 day
[8] = tested on: Phaedon cochleariae (mustard beetles); assay: Pest toxicity test; type: in vivo; conditions: in vivo
[9] = tested on: Venturia inaequalis (apple); assay: Fungicidal test against foliar disease G (foliage spray plus soil drench); type: in vivo; conditions: 100 ppm spray and drench; 21 days
Procedure: This Example illustrates the fungicidal properties of compounds used as active ingredients in the compositions of the invention. The compounds were tested against a wide variety of foliar fungal diseases of plants. In the test, a composition comprising an aqueous solution or suspension of the test compound was sprayed on to the foliage or uninfected plants; the soil in which the plants were growing was also drenched with the composition. The compositions used for spraying and drencing contained 100 parts per million (ppm.) of the test compound except where otherwise stated in the table of results below. After spraying and drenching, the plants were then exposed to infection with the diseases it was desired to control, along with control plants not treated with the compound. After a period of days, depending upon the particular disease, the extent of the disease was visually assessed, as a percentage of the disease established upon the control plants which had not been treated with the compound under test, according to the grading scheme below
In Table 2 below the names of the disease is given in the first column, and in the second column is given the time which elapsed between exposing the plants to infection and assessing the amount of disease.

[10] = tested on: Tetranychus telarius (red spider mites, adults); assay: Pest toxicity test; type: in vivo; conditions: 0.1% by weight; French bean; 3 days
[11] = tested on: Musca domestica (houseflies); assay: Pest toxicity test, contact test; type: in vivo; conditions: 0.1% by weight; milk/sugar; 2 days; flies sprayed directly
[12] = tested on: Piricularia oryzae (rice); type: in vivo; conditions: 100 ppm spray and drench; 7 days
Megoura viceae = assay: Pest toxicity test; type: in vivo; conditions: 0.1% by weight; broad bean; 2 days
[13] = tested on: Agrobacterium tumifaciens; assay: Antibacterial agar test (B1); type: cell-based; conditions: 50 ppm; 5 days
[14] = tested on: Puccinia recondita (wheat); assay: Fungicidal test against foliar disease A (foliage spray plus soil drench); type: in vivo; conditions: 100 ppm spray and drench; 10 days
Uncinula necator (vine) = assay: Fungicidal test against foliar disease D (foliage spray plus soil drench); type: in vivo; conditions: 100 ppm spray and drench; 10 days
[15] = tested on: Phytophthora infestans (tomato); type: in vivo; conditions: 100 ppm spray and drench; 3 days
[16] = tested on: Meloidogyne incognita (nematodes); assay: Pest toxicity test; type: in vivo; conditions: 0.01% by weight; water; 1 day
[17] = tested on: Agriolimax reticulatus (slugs); assay: Molluscicidal activity test; type: in vivo, Agriolimax reticulatus (Mull); conditions: pellet with 4% by weight; 6 days; 10°C
How it was run: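 Compound was applied to a calf feeding pellet at 4% by weight active ingredient after 24 h air drying. Two replicates, each of 2 slugs starved 24 h, were kept with a moist filter paper at 10°C, and kill was assessed after 6 days.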

Maize = assay: Herbicidal test, pre- and post-emergence; type: in vivo; conditions: 10 kg/ha; scale 0 to 3 (complete kill)
Wheat = assay: Herbicidal test, pre- and post-emergence; type: in vivo; conditions: 10 kg/ha; scale 0 to 3 (complete kill)
Lettuce = assay: Herbicidal test, pre- and post-emergence; type: in vivo; conditions: 10 kg/ha; scale 0 to 3 (complete kill)
Tomato = assay: Herbicidal test, pre- and post-emergence; type: in vivo; conditions: 10 kg/ha; scale 0 to 3 (complete kill)

Compound | Antibacterial activity grading B5 (Xanthomonas oryzae) | Antibacterial activity grading B7 (Streptomyces scabies) | Mortality grading (kill) [1] | Antibacterial activity grading B4 (Erwinia carotovora) | Mortality grading (kill) [2] | Antibacterial activity grading B6 (Pseudomonas syringae) | Antibacterial activity grading B2 [3] | Mortality grading (kill) [5] | Antibacterial activity grading B3 (Xanthomonas malvacearum) | Mortality grading (kill) [6] | Mortality grading (kill) (Aphis fabae) | Mortality grading (kill) [7] | Mortality grading (kill) [8] | Mortality grading (kill) [10] | Mortality grading (kill), contact test [11] | Mortality grading (kill) (Megoura viceae) | Antibacterial activity grading B1 [13] | Amount of disease grading, disease C (Table 4) [4] | Amount of disease grading, disease D (Table 4) (Uncinula necator (vine)) | Mortality grading (kill) [16] | other results
COc1nc(F)c(Cl)c(Nc2c(F)c(F)c(C#N)c(F)c2F)c1Cl [Compound 21, 2-Fluoro-3,5-dichloro-6methoxy-4(4-cyano-2,3,5,6-tetrafluoroanilino)pyridine] | 2 (6 to 25) | 3 (0 to 5) | 1 (key: O represents less than 30% kill; 1 represents 30 - 49% kill; 2 represents 60 - 90% kill; 3 represents over 90% kill; C indicates a chemosterilant effect.; A indicates an antifeeding effect.) | 3 (0 to 5) | 0 (O represents less than 30% kill) | 3 (0 to 5) | 3 (0 to 5) | 0 (O represents less than 30% kill) | 3 (0 to 5) | 0 (O represents less than 30% kill) | 0 (O represents less than 30% kill) | 3 (3 represents over 90% kill) | 0 (key: O represents less than 30% kill; 1 represents 30 - 49% kill; 2 represents 60 - 90% kill; 3 represents over 90% kill; C indicates a chemosterilant effect.; A indicates an antifeeding effect.) | 0 (O represents less than 30% kill) | 2 (2 represents 60 - 90% kill) | 0 (O represents less than 30% kill) | 2 (6 to 25) |  |  |  | Amount of disease grading, disease C [4]: 3 (0 to 5); Amount of disease grading, disease G [9]: 3 (0 to 5); Amount of disease grading, disease E [12]: 3 (0 to 5); Amount of disease grading, disease A [14]: 3 (0 to 5)
O=[N+]([O-])c1cc(Cl)c(Nc2c(Cl)c(F)nc(F)c2Cl)cc1Cl [Compound 24, 3,5-Dichloro-2,6-difluoro-4(2,5-dichloro-4nitro-anilino)pyridine] | 3 (0 to 5) | 3 (0 to 5) | 0 (key: O represents less than 30% kill; 1 represents 30 - 49% kill; 2 represents 60 - 90% kill; 3 represents over 90% kill; C indicates a chemosterilant effect.; A indicates an antifeeding effect.) | 3 (0 to 5) | 0 (O represents less than 30% kill) | 3 (0 to 5) | 3 (0 to 5) | 0 (O represents less than 30% kill) | 3 (0 to 5) | 0 (O represents less than 30% kill) | 0 (O represents less than 30% kill) | 3 (3 represents over 90% kill) | 0 (key: O represents less than 30% kill; 1 represents 30 - 49% kill; 2 represents 60 - 90% kill; 3 represents over 90% kill; C indicates a chemosterilant effect.; A indicates an antifeeding effect.) | 3 (3 represents over 90% kill) | 1 (1 represents 30 - 49% kill) | 0 (O represents less than 30% kill) | 3 (0 to 5) | 3 (0 to 5) | 3 (0 to 5) | 0 (O represents less than 30% kill) | Amount of disease grading, disease B (Table 4) [15]: 3 (0 to 5); Amount of disease grading, disease E (Table 4) [12]: 0 (61 to 100); Amount of disease grading, disease A (Table 4) [14]: 0 (61 to 100)
O=[N+]([O-])c1cc(Cl)cc([N+](=O)[O-])c1Nc1c(Cl)c(F)nc(F)c1Cl [Compound 29, 3,5-Dichloro-2,6-difluoro-4(4-chloro-2,6-dinitroanilino)pyridine] | 3 (0 to 5) | 3 (0 to 5) | 0 (key: O represents less than 30% kill; 1 represents 30 - 49% kill; 2 represents 60 - 90% kill; 3 represents over 90% kill; C indicates a chemosterilant effect.; A indicates an antifeeding effect.) | 3 (0 to 5) |  | 3 (0 to 5) | 3 (0 to 5) | 0 (O represents less than 30% kill) | 3 (0 to 5) | 0 (O represents less than 30% kill) | 3 (3 represents over 90% kill) | 3 (3 represents over 90% kill) | 0 (key: O represents less than 30% kill; 1 represents 30 - 49% kill; 2 represents 60 - 90% kill; 3 represents over 90% kill; C indicates a chemosterilant effect.; A indicates an antifeeding effect.) | 3 (3 represents over 90% kill) | 0 (O represents less than 30% kill) | 3 (3 represents over 90% kill) | 3 (0 to 5) | 3 (0 to 5) | 3 (0 to 5) | 0 (O represents less than 30% kill) | % Kill of slugs [17]: 50%; Damage to plants, post-emergence (Maize): 0; Damage to plants, pre-emergence (Maize): 0; Damage to plants, post-emergence (Wheat): 0; Damage to plants, pre-emergence (Wheat): 3; Damage to plants, post-emergence (Lettuce): 0; Damage to plants, pre-emergence (Lettuce): 3; Damage to plants, post-emergence (Tomato): 0; Damage to plants, pre-emergence (Tomato): 3
N#Cc1c(F)c(F)c(Nc2c(Cl)c(F)nc(F)c2Cl)c(F)c1C#N [Compound 33, 3,5-Dichloro-4(3,4-dicyano-2,5,6-trifluoroanilino) 2,6-difluoropyridine] | 3 (0 to 5) | 3 (0 to 5) | 1 (key: O represents less than 30% kill; 1 represents 30 - 49% kill; 2 represents 60 - 90% kill; 3 represents over 90% kill; C indicates a chemosterilant effect.; A indicates an antifeeding effect.) | 3 (0 to 5) | 3 (3 represents over 90% kill) | 3 (0 to 5) | 3 (0 to 5) | 3 (3 represents over 90% kill) | 3 (0 to 5) | 2 (2 represents 60 - 90% kill) | 0 (O represents less than 30% kill) | 0 (O represents less than 30% kill) | 0 (key: O represents less than 30% kill; 1 represents 30 - 49% kill; 2 represents 60 - 90% kill; 3 represents over 90% kill; C indicates a chemosterilant effect.; A indicates an antifeeding effect.) | 3 (3 represents over 90% kill) |  | 0 (O represents less than 30% kill) | 3 (0 to 5) | 3 (0 to 5) | 2 (6 to 25) | 0 (O represents less than 30% kill) | Amount of disease grading, disease B (Table 4) [15]: 3 (0 to 5); Amount of disease grading, disease E (Table 4) [12]: 3 (0 to 5); Amount of disease grading, disease A (Table 4) [14]: 2 (6 to 25)
